Legend:
[1] = DRUGMATRIX: Calcium Channel Type L, Benzothiazepine radioligand binding (ligand: [3H] Diltiazem); format: cell membranes, Rattus norvegicus, Wistar, Brain, Membrane; details: Not Active = under 50% inhibition at 10 µM
[2] = target: Protein phosphatase 3 catalytic subunit alpha (Homo sapiens, UniProt Q08209); design: species or system Escherichia coli;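 note: inhibition of calcineurin (PP2B) enzyme activity, measured with DiFMUP as the substrate; in other assays of this panel Not Active means under 50% inhibition at 10 µM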
[3] = target: T1, Muscarinic acetylcholine receptor M2 (Homo sapiens, UniProt P08172); format: cell membranes, CHO-K1, Membrane; details: cho-k1; note: in other assays of this panel Not Active means under 50% inhibition at 10 µM
T1 sequence (P08172 whole entry): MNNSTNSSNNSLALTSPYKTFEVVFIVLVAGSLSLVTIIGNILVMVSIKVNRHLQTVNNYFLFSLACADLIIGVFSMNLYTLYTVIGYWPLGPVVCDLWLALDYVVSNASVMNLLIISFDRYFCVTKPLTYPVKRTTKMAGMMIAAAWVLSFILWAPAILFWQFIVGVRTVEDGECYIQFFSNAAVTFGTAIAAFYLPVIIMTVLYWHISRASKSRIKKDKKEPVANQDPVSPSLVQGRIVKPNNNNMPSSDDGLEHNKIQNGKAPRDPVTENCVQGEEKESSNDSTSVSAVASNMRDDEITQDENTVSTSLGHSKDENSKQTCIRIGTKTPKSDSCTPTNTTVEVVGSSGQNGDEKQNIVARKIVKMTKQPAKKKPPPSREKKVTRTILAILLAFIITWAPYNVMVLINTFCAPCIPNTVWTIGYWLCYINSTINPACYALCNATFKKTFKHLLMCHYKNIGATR

[4] = target: Beta-1 adrenergic receptor (Homo sapiens, UniProt P08588); assay: DRUGMATRIX: Adrenergic beta1 radioligand binding (ligand: [125I] Cyanopindolol); format: cell membranes, CHO-K1, Membrane; details: cho-k1; Not Active = under 50% inhibition at 10 µM
[5] = target: Receptor tyrosine-protein kinase erbB-2 (Homo sapiens, UniProt P04626); assay: biochemical; format: cell-based, Insect cells; details: insect cells;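 note: inhibition of HER2 kinase enzyme activity, measured with Poly(Glu:Tyr) as the phosphorylation substrate; in other assays of this panel Not Active means under 50% inhibition at 10 µM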
[6] = target: 5-hydroxytryptamine receptor 4 (Cavia porcellus, UniProt O70528); format: cell membranes, Dunkin-Hartley, Striatum, Membrane; note: in other assays of this panel Not Active means under 50% inhibition at 10 µM
[7] = DRUGMATRIX: Glutamate, Kainate radioligand binding (ligand: [3H] Kainic acid); format: cell membranes, Rattus norvegicus, Wistar, Brain, Membrane; details: Not Active = under 50% inhibition at 10 µM
[8] = target: T2, Cysteinyl leukotriene receptor 1 (Homo sapiens, UniProt Q9Y271); format: cell membranes, CHO-K1, Membrane; details: cho-k1; note: in other assays of this panel Not Active means under 50% inhibition at 10 µM
T2 sequence (Q9Y271 whole entry): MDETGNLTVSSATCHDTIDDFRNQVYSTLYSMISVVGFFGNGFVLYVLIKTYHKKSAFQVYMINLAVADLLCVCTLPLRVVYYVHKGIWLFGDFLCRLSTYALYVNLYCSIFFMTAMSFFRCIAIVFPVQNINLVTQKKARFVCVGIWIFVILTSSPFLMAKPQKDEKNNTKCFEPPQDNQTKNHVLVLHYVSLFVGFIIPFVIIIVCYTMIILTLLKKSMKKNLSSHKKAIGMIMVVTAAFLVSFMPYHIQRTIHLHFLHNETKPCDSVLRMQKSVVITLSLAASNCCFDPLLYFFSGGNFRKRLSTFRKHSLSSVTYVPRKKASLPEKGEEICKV

Substance-K receptor = target: T3, Substance-K receptor (Homo sapiens, UniProt P21452); format: cell membranes, CHO, Membrane; details: cho; note: in other assays of this panel Not Active means under 50% inhibition at 10 µM
T3 sequence (P21452 whole entry): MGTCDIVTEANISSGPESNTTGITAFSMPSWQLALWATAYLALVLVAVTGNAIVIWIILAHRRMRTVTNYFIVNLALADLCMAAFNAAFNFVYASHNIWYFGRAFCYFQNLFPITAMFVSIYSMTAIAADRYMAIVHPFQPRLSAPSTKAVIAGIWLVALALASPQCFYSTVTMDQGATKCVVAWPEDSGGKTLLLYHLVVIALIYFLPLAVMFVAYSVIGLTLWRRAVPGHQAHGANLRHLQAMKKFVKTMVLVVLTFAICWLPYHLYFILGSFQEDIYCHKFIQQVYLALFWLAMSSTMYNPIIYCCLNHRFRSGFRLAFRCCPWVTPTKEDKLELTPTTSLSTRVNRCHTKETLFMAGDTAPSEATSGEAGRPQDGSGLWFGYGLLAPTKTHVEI

Sequence of Receptor tyrosine-protein kinase erbB-2 (P04626 whole entry): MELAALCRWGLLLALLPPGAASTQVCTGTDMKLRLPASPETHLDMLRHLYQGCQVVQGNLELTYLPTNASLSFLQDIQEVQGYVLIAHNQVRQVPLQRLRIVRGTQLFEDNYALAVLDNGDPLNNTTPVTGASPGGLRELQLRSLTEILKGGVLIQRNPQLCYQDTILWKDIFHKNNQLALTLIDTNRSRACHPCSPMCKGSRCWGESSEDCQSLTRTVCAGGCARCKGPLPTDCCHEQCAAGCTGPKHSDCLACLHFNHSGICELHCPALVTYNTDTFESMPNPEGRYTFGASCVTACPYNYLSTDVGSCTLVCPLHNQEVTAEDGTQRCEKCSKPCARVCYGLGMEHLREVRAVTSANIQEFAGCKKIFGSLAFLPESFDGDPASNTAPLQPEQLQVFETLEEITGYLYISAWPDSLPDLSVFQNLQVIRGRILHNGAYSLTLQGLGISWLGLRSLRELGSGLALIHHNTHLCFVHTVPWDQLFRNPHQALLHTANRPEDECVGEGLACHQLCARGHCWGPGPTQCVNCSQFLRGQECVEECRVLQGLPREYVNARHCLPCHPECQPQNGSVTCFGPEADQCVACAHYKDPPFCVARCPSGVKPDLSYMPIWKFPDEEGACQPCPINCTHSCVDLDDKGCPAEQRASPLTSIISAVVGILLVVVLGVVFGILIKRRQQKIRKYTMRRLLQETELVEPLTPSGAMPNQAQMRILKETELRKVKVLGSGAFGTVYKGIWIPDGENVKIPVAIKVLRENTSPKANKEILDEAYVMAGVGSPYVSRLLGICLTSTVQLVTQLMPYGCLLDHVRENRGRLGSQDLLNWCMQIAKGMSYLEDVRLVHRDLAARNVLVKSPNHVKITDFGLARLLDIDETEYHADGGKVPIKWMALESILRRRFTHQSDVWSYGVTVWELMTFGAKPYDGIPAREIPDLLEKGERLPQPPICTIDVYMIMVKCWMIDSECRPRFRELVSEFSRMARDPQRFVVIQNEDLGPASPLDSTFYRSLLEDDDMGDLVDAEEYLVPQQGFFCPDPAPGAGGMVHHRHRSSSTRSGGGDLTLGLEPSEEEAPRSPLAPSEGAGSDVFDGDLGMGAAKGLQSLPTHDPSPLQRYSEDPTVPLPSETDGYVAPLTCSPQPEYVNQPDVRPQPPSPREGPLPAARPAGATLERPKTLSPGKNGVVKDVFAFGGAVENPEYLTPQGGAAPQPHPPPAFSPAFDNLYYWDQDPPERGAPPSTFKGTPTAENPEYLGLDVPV
Sequence of Beta-1 adrenergic receptor (P08588 whole entry): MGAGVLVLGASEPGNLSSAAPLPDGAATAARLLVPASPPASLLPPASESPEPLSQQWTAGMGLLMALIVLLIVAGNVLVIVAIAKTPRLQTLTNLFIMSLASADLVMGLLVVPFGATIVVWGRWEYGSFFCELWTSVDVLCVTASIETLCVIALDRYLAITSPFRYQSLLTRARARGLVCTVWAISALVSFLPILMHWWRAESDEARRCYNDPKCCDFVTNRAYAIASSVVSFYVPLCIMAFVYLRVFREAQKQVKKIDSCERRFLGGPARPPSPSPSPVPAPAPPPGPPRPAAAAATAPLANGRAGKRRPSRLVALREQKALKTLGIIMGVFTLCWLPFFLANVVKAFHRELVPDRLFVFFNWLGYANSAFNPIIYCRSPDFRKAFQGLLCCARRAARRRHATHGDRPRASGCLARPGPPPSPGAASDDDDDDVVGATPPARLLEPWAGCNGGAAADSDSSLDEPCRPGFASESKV
Sequence of 5-hydroxytryptamine receptor 4 (O70528 whole entry): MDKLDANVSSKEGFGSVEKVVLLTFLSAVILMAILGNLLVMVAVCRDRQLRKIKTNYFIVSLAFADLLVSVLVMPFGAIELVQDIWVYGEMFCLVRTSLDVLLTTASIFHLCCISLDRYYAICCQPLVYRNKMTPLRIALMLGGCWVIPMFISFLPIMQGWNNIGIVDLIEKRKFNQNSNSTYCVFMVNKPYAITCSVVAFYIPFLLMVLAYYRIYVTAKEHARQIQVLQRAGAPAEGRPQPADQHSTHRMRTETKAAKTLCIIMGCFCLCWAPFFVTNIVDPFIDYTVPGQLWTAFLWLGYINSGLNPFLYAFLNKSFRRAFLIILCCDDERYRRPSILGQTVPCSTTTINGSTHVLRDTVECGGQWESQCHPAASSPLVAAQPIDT

Row | Structure (SMILES) | IC50 [1] | Ki [1] | IC50 [2] | IC50 [3] | IC50 [4] | IC50 [5] | IC50 [6] | IC50 [7] | Ki [7] | IC50 [8] | IC50 (Substance-K receptor) | IC50 ([1]; read-out: IC50) [nM] | Ki ([1]; read-out: Ki) [nM]
1 | CCCc1cc(=O)[nH]c(=S)[nH]1 [PROPYLTHIOURACIL] | Not Active | Not Active | Not Active | Not Active | Not Active | Not Active | Not Active | Not Active | Not Active | Not Active | Not Active |  | 
2 | O=P1(NCCCl)OCCCN1CCCl (configuration not stated) [IFOSFAMIDE] | Not Active | Not Active | Not Active | Not Active | Not Active | Not Active | Not Active | Not Active | Not Active | Not Active | Not Active |  | 
3 | C=C1CC[C@H](O)C/C1=C/C=C1\CCC[C@]2(C)[C@@H]([C@H](C)/C=C/[C@H](C)C(C)C)CC[C@@H]12 [ERGOCALCIFEROL] | Not Active | Not Active | Not Active | Not Active | Not Active | Not Active | Not Active | Not Active | Not Active | Not Active | Not Active |  | 
4 | Cc1ccccc1N1CCN(CCc2nnc3n2CCCC3)CC1 [DAPIPRAZOLE] | Not Active | Not Active | Not Active | Not Active | Not Active | Not Active | Not Active | Not Active | Not Active | Not Active | Not Active |  | 
5 | CC=CC(=O)N(CC)c1ccccc1C | Not Active | Not Active | Not Active | Not Active | Not Active | Not Active | Not Active | Not Active | Not Active | Not Active | Not Active |  | 
6 | C[C@]12CCC(=O)C=C1CC[C@@H]1[C@@H]2C(=O)C[C@@]2(C)[C@H]1CC[C@]2(O)C(=O)CO [CORTISONE] | Not Active | Not Active | Not Active | Not Active | Not Active | Not Active | Not Active | Not Active | Not Active | Not Active | Not Active |  | 
7 | O=C1NC(=O)C(c2ccccc2)(c2ccccc2)N1 [PHENYTOIN] | Not Active | Not Active | Not Active | Not Active | Not Active | Not Active | Not Active | Not Active | Not Active | Not Active | Not Active |  | 
8 | CC(=O)[C@@]1(O)CC[C@H]2[C@@H]3C[C@H](C)C4=CC(=O)C=C[C@]4(C)[C@@]3(F)[C@@H](O)C[C@@]21C [FLUOROMETHOLONE] | Not Active | Not Active | Not Active | Not Active | Not Active | Not Active | Not Active | Not Active | Not Active | Not Active | Not Active |  | 
9 | Nc1nc2c(ncn2COC(CO)CO)c(=O)[nH]1 [GANCICLOVIR] | Not Active | Not Active | Not Active | Not Active | Not Active | Not Active | Not Active | Not Active | Not Active | Not Active | Not Active |  | 
10 | O=C1CCc2cc(OCCCCc3nnnn3C3CCCCC3)ccc2N1 [CILOSTAZOL] | Not Active | Not Active | Not Active | Not Active | Not Active | Not Active | Not Active | Not Active | Not Active | Not Active | Not Active |  | 
11 | O=C(O)c1cn(C2CC2)c2cc(N3CCNCC3)c(F)cc2c1=O [CIPROFLOXACIN] | Not Active | Not Active | Not Active | Not Active | Not Active | Not Active | Not Active | Not Active | Not Active | Not Active | Not Active |  | 
12 | CCOC(=O)OC(C)OC1=C(C(=O)Nc2ccccn2)N(C)S(=O)(=O)c2ccccc21 (configuration not stated) [AMPIROXICAM] | Not Active | Not Active | Not Active | Not Active | Not Active | Not Active | Not Active | Not Active | Not Active | Not Active | Not Active |  | 
13 | NCC1(CC(=O)O)CCCCC1 [GABAPENTIN] | Not Active | Not Active | Not Active | Not Active | Not Active | Not Active | Not Active | Not Active | Not Active | Not Active | Not Active |  | 
14 | CN1CCC[C@H]1c1cccnc1 [NICOTINE] | Not Active | Not Active | Not Active | Not Active | Not Active | Not Active | Not Active | Not Active | Not Active | Not Active | Not Active |  | 
15 | NCC(=O)O [GLYCINE] | Not Active | Not Active | Not Active | Not Active | Not Active | Not Active | Not Active | Not Active | Not Active | Not Active | Not Active |  | 
16 | CC1(C)S[C@@H]2[C@H](NC(=O)[C@H](NC(=O)N3CCNC3=O)c3ccccc3)C(=O)N2[C@H]1C(=O)O [AZLOCILLIN] | Not Active | Not Active | Not Active | Not Active | Not Active | Not Active | Not Active | Not Active | Not Active | Not Active | Not Active |  | 
17 | CN(C)CCCC1(c2ccc(F)cc2)OCc2cc(C#N)ccc21 (configuration not stated) [CITALOPRAM] |  |  | Not Active | Not Active | Not Active | Not Active | Not Active | Not Active | Not Active | Not Active | Not Active | 1790 | 1590
